The record followed here is patent publication US5686486A, “4-hydroxy-benzopyran-2-ones and 4-hydroxy-cycloalkyl[b]pyran-2-ones useful to treat retroviral infections” (priority 1995, dated 1997).

Structures can show the parent of a compound that is named as a salt. Where two headings read alike, the source gives them in different places.

This experiment addresses HIV-1 protease (Human immunodeficiency virus type 1 group M subtype B, UniProt P04585). Put plainly: biochemical. Particulars: for inhibition at 0.123 µM: read-out: HIV-1 Protease % Inhib, dose 0.123 uM. In a few lines: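 Percent inhibition derived from fluorescent cleavage product separated by filtration after streptavidin-bead capture of intact biotin/FITC substrate. Reaction: enzyme (10 μl, 0.1 μM stock) with substrate (20 μl, 0.2 μM stock) and compound, 1 h at room temperature in dark, pH 5.5 acetate buffer with 1.0 M NaCl and 0.05% NP-40.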

[1] abbreviates: dose 0.370 uM, read-out: HIV-1 Protease % Inhib.
Setting [2] is: dose 1.100 uM, read-out: HIV-1 Protease % Inhib.
[3] abbreviates: dose 3.300 uM, read-out: HIV-1 Protease % Inhib.
Where [4] appears, read: dose 10.000 uM, read-out: HIV-1 Protease % Inhib.
Where [5] appears, read: dose 30.000 uM, read-out: HIV-1 Protease % Inhib.
Setting [6] is: read-out: HIV-1 Protease % Inhib, dose 0.370 uM.
[7] abbreviates: read-out: HIV-1 Protease % Inhib, dose 1.100 uM.
Where [8] appears, read: read-out: HIV-1 Protease % Inhib, dose 3.300 uM.
The mark [9] stands for this setting: read-out: HIV-1 Protease % Inhib, dose 10.000 uM.
Setting [10] is: read-out: HIV-1 Protease % Inhib, dose 30.000 uM.

On to `O=C(Nc1cccc(C(c2c(O)c3c(oc2=O)CCCCCC3)C2CC2)c1)c1ccc(Cl)cc1` (stereo not drawn) [Example 206, Benzamide, 4-chloro-N-[3-[cyclopropyl(5,6,7,8,9,10-hexahydro-4-hydroxy-2-oxo-2H-cycloocta[b]pyran-3-yl)methyl]phenyl]-], for which the inhibition at 0.37 µM under setting [1] was found to be 17.9%. In addition, the inhibition at 1.1 µM under setting [2] stood at 48%. Also, under setting [3], the inhibition at 3.3 µM is 76.4%. The inhibition at 10 µM under setting [4] worked out at 95.8%. Moreover, the inhibition at 30 µM under setting [5] came to 93.1%.

In the case of `O=C(C=Cc1ccccc1)Nc1cccc(C(c2c(O)c3c(oc2=O)CCCCCC3)C2CC2)c1` (stereo not drawn) [Example 208], under setting [2], the inhibition at 1.1 µM was determined as 22.9%. For the same compound, under setting [3], the inhibition at 3.3 µM turned out to be 57.6%. Moreover, the inhibition at 10 µM under setting [4] amounted to 76.8%. The inhibition at 30 µM under setting [5] worked out at 84.4%.

As for `O=C(Nc1cccc(C(c2c(O)c3c(oc2=O)CCCCCC3)C2CC2)c1)c1cccc2ccccc12` (stereo not drawn) [Example 212, 1-Naphthalenecarboxamide, N-[3-[cyclopropyl(5,6,7,8,9,10-hexahydro4-hydroxy-2-oxo-2H-cyclooct[b]pyran-3-yl)methyl]phenyl]-], the inhibition at 3.3 µM under setting [3] was 32.5%. Besides, under setting [4], the inhibition at 10 µM worked out at 59.5%. Moreover, under setting [5], the inhibition at 30 µM is 69.5%.

Take `CC(C)(C)OC(=O)NCC(=O)N(Cc1ccccc1)c1cccc(C(c2c(O)c3c(oc2=O)CCCCCC3)C2CC2)c1` (stereo not drawn) [Example 216, Carbamic acid, [2-[[3-[cyclopropyl(5,6,7,8,9,10-hexahydro4-hydroxy-2-oxo-2H-cycloocta[b]pyran-3-yl)methyl]phenyl](phenylmethyl)amino]-2-oxyethyl]-, 1,1-dimethylethyl ester]: the inhibition at 10 µM under setting [4] was found to be 10.9%. Moreover, the inhibition at 30 µM under setting [5] is 31.4%.

For the compound `CCC(c1cccc(NC(=O)OCc2ccccc2)c1)c1c(O)c2c(oc1=O)CCCCCC2` (stereo not drawn) [Example 217, Carbamic Acid, [3-[1-(5,6,7,8,9,10-hexahydro-4-hydroxy-2-oxo-2H-cycloocta[b]pyran-3-yl)propyl]phenyl]-, phenyl methyl ester], the inhibition at 3.3 µM under setting [3] came to 31.6%. For the same compound, the inhibition at 10 µM under setting [4] was found to be 64.2%. The inhibition at 30 µM under setting [5] is 72.9%.

In the case of `CCC(c1cccc(N)c1)c1c(O)c2c(oc1=O)CCCCCC2` (stereo not drawn) [Example 218, 2H-Cycloocta[b]pyran-2-one, 3-[1-(3-aminophenyl)propyl]-5,6,7,8,9,10-hexahydro-4-hydroxy-], the inhibition at 1.1 µM under setting [2] is 26.2%. Besides, the inhibition at 3.3 µM under setting [3] stood at 65.2%. Moreover, the inhibition at 10 µM under setting [4] is 88%. Moreover, the inhibition at 30 µM under setting [5] was found to be 91.4%.

In the case of `CCC(c1cccc(NC(=O)CCN)c1)c1c(O)c2c(oc1=O)CCCCCC2` (stereo not drawn) [Example 220, Propanamide, 3-amino-N-[3-[1-(5,6,7,8,9,10-hexahydro4-hydroxy-2-oxo-2H-cycloocta[b]pyran-3-yl)propyl]phenyl]-, monohydrochloride], the inhibition at 1.1 µM under setting [2] is 25.2%. Further, the inhibition at 3.3 µM under setting [3] came to 63.6%. Moreover, the inhibition at 10 µM under setting [4] amounted to 94%. Moreover, under setting [5], the inhibition at 30 µM came out at 101%.

In the case of `CCC(c1cccc(NS(=O)(=O)c2ccc(Cl)cc2)c1)c1c(O)c2c(oc1=O)CCCCCC2` (stereo not drawn) [Example 221, Benzenesulfonamide, 4-chloro-N-[3-[1-(5,6,7,8,9,10-hexahydro-4-hydroxy-2-oxo-2H-cycloocta[b]pyran-3-yl)propyl]phenyl]-], the inhibition at 0.123 µM was 79.7%. For the same compound, the inhibition at 0.37 µM under setting [6] worked out at 101%. Besides, the inhibition at 1.1 µM under setting [7] was determined as 116%. Also, the inhibition at 3.3 µM under setting [8] was 117%. Moreover, the inhibition at 10 µM under setting [9] is 119%. For the same compound, the inhibition at 30 µM under setting [10] was determined as 124%.

On to `CCC(c1cccc(NS(=O)(=O)c2ccc(C#N)cc2)c1)c1c(O)c2c(oc1=O)CCCCCC2` (stereo not drawn) [Example 222, Benzenesulfonamide, 4-cyano-N-[3-[1-(5,6,7,8,9,10-hexahydro-4-hydroxy-2-oxo-2H-cycloocta[b]pyran-3-yl)propyl]phenyl]-], for which the inhibition at 0.123 µM worked out at 80.4%. The inhibition at 0.37 µM under setting [6] amounted to 94.1%. Besides, the inhibition at 1.1 µM under setting [7] is 103%. Besides, under setting [8], the inhibition at 3.3 µM is 110%. Under setting [9], the inhibition at 10 µM worked out at 111%. Besides, the inhibition at 30 µM under setting [10] was determined as 110%.

For `CCNC(=O)Nc1cccc(C(c2c(O)c3c(oc2=O)CCCCCC3)C2CC2)c1` (stereo not drawn) [Example 223, N-[3-[Cyclopropyl(5,6,7,8,9,10-hexahydro-4-hydroxy-2-oxo-2H-cycloocta[b]pyran-3-yl)methyl]phenyl]-N'-ethyl-urea], the inhibition at 0.123 µM is 11.1%. Further, the inhibition at 0.37 µM under setting [6] came out at 31.3%. The inhibition at 1.1 µM under setting [7] is 62.3%. Besides, the inhibition at 3.3 µM under setting [8] stood at 85.7%. The inhibition at 10 µM under setting [9] worked out at 102%. Besides, the inhibition at 30 µM under setting [10] came out at 101%.

Take `O=C(Nc1ccccc1)Nc1cccc(C(c2c(O)c3c(oc2=O)CCCCCC3)C2CC2)c1` (stereo not drawn) [Example 224, N-[3-[Cyclopropyl(5,6,7,8,9,10-hexahydro-4-hydroxy-2-oxo-2H-cycloocta[b]pyran-3-yl)methyl]phenyl]-N'-phenyl-urea]: the inhibition at 0.37 µM under setting [1] worked out at 10.9%. In addition, the inhibition at 1.1 µM under setting [2] worked out at 42.4%. In addition, under setting [3], the inhibition at 3.3 µM came out at 72.3%. Also, under setting [4], the inhibition at 10 µM came to 83.7%. For the same compound, the inhibition at 30 µM under setting [5] was 95.3%.

`O=C(Nc1cccc(C(c2c(O)c3c(oc2=O)CCCCCC3)C2CC2)c1)Oc1ccccc1` (stereo not drawn) [Example 225, [3-[Cyclopropyl(5,6,7,8,9,10-hexahydro-4-hydroxy-2-oxo-2H-cycloocta[b]pyran-3-yl)methyl]phenyl]-, phenyl ester carbamic acid]: under setting [7], the inhibition at 1.1 µM worked out at 14.9%. In addition, under setting [8], the inhibition at 3.3 µM was determined as 47%. In addition, under setting [9], the inhibition at 10 µM came out at 77.2%. Under setting [10], the inhibition at 30 µM came to 91.7%.

`CC(C)C(c1ccccc1)c1c(O)c2c(oc1=O)CCCCCC2` (stereo not drawn) [Example 227, 2H-Cycloocta[b]pyran-2-one,5,6,7,8,9,10-hexahydro-4-hydroxy-3-(2-methyl-1-phenylpropyl)-]: under setting [6], the inhibition at 0.37 µM amounted to 41.7%. Besides, the inhibition at 1.1 µM under setting [7] turned out to be 81.1%. In addition, the inhibition at 3.3 µM under setting [8] was determined as 91.1%. Moreover, under setting [9], the inhibition at 10 µM came to 90.1%. Moreover, the inhibition at 30 µM under setting [10] worked out at 80.9%.

Regarding `O=c1oc2c(c(O)c1C(c1cccc(NCc3ccccc3)c1)C1CC1)CCCCCC2` (stereo not drawn) [Example 242, 3-[Cyclopropyl-[3-[(phenylmethyl)amino]phenyl]methyl]-5,6,7,8,9,10-hexahydro-4-hydroxy-2H-cycloocta[b]pyran-2-one], the inhibition at 1.1 µM under setting [2] was 13.8%. Also, under setting [3], the inhibition at 3.3 µM turned out to be 36%. Moreover, the inhibition at 10 µM under setting [4] amounted to 65.3%. Moreover, the inhibition at 30 µM under setting [5] was found to be 78.9%.

Turning to `O=c1oc2c(c(O)c1C(c1cccc(NCCc3ccccc3)c1)C1CC1)CCCCCC2` (stereo not drawn) [Example 243, 3-[Cyclopropyl-[3-[(2-phenylethyl)amino]phenyl]methyl]-5,6,7,8,9, 10-hexahydro-4-hydroxy-2H-cycloocta[b]pyran-2-one], the inhibition at 3.3 µM under setting [3] is 24.4%. Also, the inhibition at 10 µM under setting [4] was found to be 44.7%. Moreover, under setting [5], the inhibition at 30 µM was 54.3%.

Regarding `O=c1oc2c(c(O)c1C(c1cccc(N(Cc3ccccc3)S(=O)(=O)c3ccccc3)c1)C1CC1)CCCCCC2` (stereo not drawn) [Example 244, N-[3-[Cyclopropyl(5,6,7,8,9, 10-hexahydro-4-hydroxy-2-oxo-2H-cycloocta[b]pyran-3-yl)methyl]phenyl]-N-(phenylmethyl)-benzenesulfonamide], under setting [4], the inhibition at 10 µM was 18.8%. Also, the inhibition at 30 µM under setting [5] came to 31.8%.

`CS(=O)(=O)N(Cc1ccccc1)c1cccc(C(c2c(O)c3c(oc2=O)CCCCCC3)C2CC2)c1` (stereo not drawn) [Example 245, N-[3-[Cyclopropyl(5,6,7,8,9, 10-hexahydro-4-hydroxy-2-oxo-2H-cycloocta[b]pyran-3-yl)methyl]phenyl]-N-(phenylmethyl)-methanesulfonamide]: under setting [2], the inhibition at 1.1 µM was 10.6%. Further, the inhibition at 3.3 µM under setting [3] amounted to 50.9%. Moreover, under setting [4], the inhibition at 10 µM was 59.5%. Further, the inhibition at 30 µM under setting [5] was 78.6%.

Turning to `O=c1oc2c(c(O)c1C(c1cccc(N(CCc3ccccc3)S(=O)(=O)c3ccccc3)c1)C1CC1)CCCCCC2` (stereo not drawn) [Example 246, N-[3-[cyclopropyl(5,6,7,8,9,10-hexahydro-4-hydroxy-2-oxo-2H-cycloocta[b]pyran-3-yl)methyl]phenyl]-N-(2-phenylethyl)-benzenesulfonamide], the inhibition at 10 µM under setting [4] was found to be 26.6%. The inhibition at 30 µM under setting [5] is 49.7%.

As for `O=c1oc2c(c(O)c1C(c1cccc(NS(=O)(=O)c3cccc4cccnc34)c1)C1CC1)CCCCCC2` (stereo not drawn) [Example 263, N-[3-[Cyclopropyl(5,6,7,8,9, 10-hexahydro4-hydroxy-2-oxo-2H-cycloocta[b]pyran-3-yl)methyl]phenyl]-8-quinolinesulfonamide], the inhibition at 0.123 µM was 82.9%. Moreover, the inhibition at 0.37 µM under setting [6] turned out to be 89.9%. The inhibition at 1.1 µM under setting [7] is 95.7%. Also, the inhibition at 3.3 µM under setting [8] was determined as 98.7%. Besides, under setting [9], the inhibition at 10 µM was 108%. Also, the inhibition at 30 µM under setting [10] came to 98.3%.

Consider `O=c1oc2c(c(O)c1C(c1cccc(NS(=O)(=O)c3ccc(Cl)cc3)c1)C1CC1)CCCCCC2` (stereo not drawn) [Example 264, 4-Chloro-N-[3-[cyclopropyl(5,6,7,8,9,10-hexahydro4-hydroxy-oxo-2H-cycloocta[b]pyran-3-yl)methyl]phenyl]-benzenesulfonamide], for which the inhibition at 0.123 µM was determined as 78.5%. In addition, the inhibition at 0.37 µM under setting [6] was determined as 89%. Further, under setting [7], the inhibition at 1.1 µM was 99.8%. Moreover, the inhibition at 3.3 µM under setting [8] was 104%. Under setting [9], the inhibition at 10 µM amounted to 108%. Moreover, under setting [10], the inhibition at 30 µM amounted to 109%.
